Legend:
Conditions in all cases: 72 h
[1] = tested on: Caco-2; assay: relative viability EC50 (midpoint between 100% and the lowest measured viability); higher = less toxic
[2] = tested on: HepG2; assay: as above
[3] = tested on: U2OS; assay: as above
[4] = tested on: Calu-3; assay: as above
[5] = tested on: Vero E6; assay: as above
[6] = tested on: Caco-2; assay: drug sensitivity score (DSS) for viability; higher = more toxic; extreme values may be limits of the assay
[7] = tested on: HepG2; assay: as above
[8] = tested on: U2OS; assay: as above
[9] = tested on: Calu-3; assay: as above
[10] = tested on: Vero E6; assay: as above
[11] = tested on: Caco-2; assay: cell viability relative to DMSO; higher = less toxic
[12] = tested on: HepG2; assay: as above
[13] = tested on: U2OS; assay: as above
[14] = tested on: Calu-3; assay: as above
[15] = tested on: Vero E6; assay: as above

Structure (SMILES)	relative viability EC50 [1] [µM]	relative viability EC50 [2] [µM]	relative viability EC50 [3] [µM]	relative viability EC50 [4] [µM]	relative viability EC50 [5] [µM]	drug sensitivity score [6]	drug sensitivity score [7]	drug sensitivity score [8]	drug sensitivity score [9]	drug sensitivity score [10]	cell viability ([11]; 1 nM) [%]	cell viability ([11]; 10 nM) [%]	cell viability ([11]; 100 nM) [%]	cell viability ([11]; 1000 nM) [%]	cell viability ([11]; 10000 nM) [%]	cell viability ([12]; 1 nM) [%]	cell viability ([12]; 10 nM) [%]	cell viability ([12]; 100 nM) [%]	cell viability ([12]; 1000 nM) [%]	cell viability ([12]; 10000 nM) [%]	cell viability ([13]; 1 nM) [%]	cell viability ([13]; 10 nM) [%]	cell viability ([13]; 100 nM) [%]	cell viability ([13]; 1000 nM) [%]	cell viability ([13]; 10000 nM) [%]	cell viability ([14]; 1 nM) [%]	cell viability ([14]; 10 nM) [%]	cell viability ([14]; 100 nM) [%]	cell viability ([14]; 1000 nM) [%]	cell viability ([14]; 10000 nM) [%]	cell viability ([15]; 1 nM) [%]	cell viability ([15]; 10 nM) [%]	cell viability ([15]; 100 nM) [%]	cell viability ([15]; 1000 nM) [%]	cell viability ([15]; 10000 nM) [%]
O=C1CC(=O)c2c(Cl)c(Cl)c(Cl)c(Cl)c21 [TCID]	> 10	> 10	> 10	> 10	> 10	0	0	0	0	0	120	102	98.3	91.1	95.6	99.9	101	104	107	107	101	103	106	104	94.6	88	88.5	91.7	77.9	89.2	101	99.1	97	101	100
CC(C)Oc1ccc2c(=O)c3cc(C(=O)O)ccc3oc2c1 [AH6809]	> 10	> 10	> 10	> 10	> 10	0.3	0	0	0	0	97.6	100	93.2	93.6	85.2	96.6	97.1	91.5	93.6	94.5	104	105	107	102	95	112	111	96.9	103	104	96.5	102	95.3	89.8	98.9
CC(C)Cc1ccc([C@@H](C)C(=O)NCCO)cc1 (racemic) [mabuprofen]	> 10	> 10	> 10	> 10	> 10	0	0	0	0	0	102	96.4	104	94	96.1	92.7	105	90.8	95.3	96.4	105	98.9	103	100	100	106	103	105	99.4	117	102	100	101	97.9	94.7
CN(C)CCc1c[nH]c2ccc(C[C@H]3COC(=O)N3)cc12 [zolmitriptan]	> 10	> 10	> 10	> 10	> 10	0	0	0	0	0	96.9	102	96.8	110	97.8	112	111	99	87.6	111	99	99.7	96.8	103	96.9	92.2	94.2	95.2	93.2	97	108	98.3	106	106	104
O=S(=O)(O)c1ccc(O)cc1 [4-phenolsulfonic-acid]	> 10	> 10	> 10	> 10	> 10	0	0	0	0	0	102	101	98.4	103	98.4	104	92.3	116	105	97.8	100	104	97	97.6	101	102	103	104	95.1	97.1	100	95.7	92.6	100	94.5
C=C(c1ccc(C(=O)O)cc1)c1cc2c(cc1C)C(C)(C)CCC2(C)C [bexarotene]	> 10	> 10	> 10	> 10	> 10	0.9	0	0	0	0	106	90.1	95.2	86.4	86.3	94.9	96.8	107	99.7	112	94	97.9	102	95	92.7	92.5	95.8	102	96.7	103	100	102	96.6	94.3	98
NCC[C@H](O)C(=O)N[C@@H]1C[C@H](N)[C@@H](O[C@H]2O[C@H](CN)[C@@H](O)[C@H](O)[C@H]2O)[C@H](O)[C@H]1O[C@H]1O[C@H](CO)[C@@H](O)[C@H](N)[C@H]1O [amikacin]	> 10	> 10	> 10	> 10	> 10	0	0	0	0	0	95.7	103	99.5	104	104	101	104	96.6	92.6	113	97.5	98.3	98.9	103	97.9	100	99.7	94.9	105	91.5	94.8	98.5	96.9	94.5	103

Reference: the supplement of paper PMC13380429
